Experiments:
Test in all cases: pIC50, kinobeads binding competition
TTK = biological target: T1, TTK (UniProt P33981)
T1 sequence (whole entry): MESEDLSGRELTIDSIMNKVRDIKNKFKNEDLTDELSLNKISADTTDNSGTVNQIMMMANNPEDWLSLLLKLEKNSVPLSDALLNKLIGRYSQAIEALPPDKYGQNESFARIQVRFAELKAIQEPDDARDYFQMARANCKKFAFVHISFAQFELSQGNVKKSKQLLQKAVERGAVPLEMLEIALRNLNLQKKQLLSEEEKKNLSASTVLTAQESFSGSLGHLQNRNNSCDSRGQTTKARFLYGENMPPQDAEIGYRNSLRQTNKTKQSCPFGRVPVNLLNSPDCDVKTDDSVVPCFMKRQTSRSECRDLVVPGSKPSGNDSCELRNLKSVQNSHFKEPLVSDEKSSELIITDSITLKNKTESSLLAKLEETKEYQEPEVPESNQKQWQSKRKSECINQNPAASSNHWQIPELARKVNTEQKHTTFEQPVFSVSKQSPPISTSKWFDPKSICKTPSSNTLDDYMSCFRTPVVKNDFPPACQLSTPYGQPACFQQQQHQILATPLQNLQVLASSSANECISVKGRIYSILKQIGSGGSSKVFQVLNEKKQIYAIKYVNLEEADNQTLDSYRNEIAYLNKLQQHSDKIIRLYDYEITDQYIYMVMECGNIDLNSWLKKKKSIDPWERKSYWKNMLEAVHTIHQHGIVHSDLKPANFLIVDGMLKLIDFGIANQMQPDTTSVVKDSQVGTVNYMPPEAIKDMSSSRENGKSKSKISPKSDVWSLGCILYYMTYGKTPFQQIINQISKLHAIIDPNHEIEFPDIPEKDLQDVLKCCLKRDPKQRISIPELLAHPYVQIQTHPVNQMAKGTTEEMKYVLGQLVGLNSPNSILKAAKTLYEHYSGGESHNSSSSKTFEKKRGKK
Method in brief: (§1)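 Nine compound concentrations were tested, starting at 30 μM in 1:4 steps on live Jurkat cells (60 min, 37 °C, then lysis) or in 1:5 steps on Jurkat lysate or a 1:1:1:1 HEK293/K-562/HepG2/placenta lysate mix (60 min, 4 °C). Kinobeads-bound proteins were digested and quantified with TMT10 LC-MS/MS. pIC50 values are from logistic dose-response fits in the R drc package of fold changes relative to vehicle, from biological duplicates.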

LIMK1 = LIMK1 (UniProt P53667)
Method in brief: as §1

CAMKK1 = CAMKK1 (UniProt Q8N5S9)
Method in brief: as §1

UniProt Q15831 = biological target: T2, UniProt Q15831
T2 sequence (whole entry): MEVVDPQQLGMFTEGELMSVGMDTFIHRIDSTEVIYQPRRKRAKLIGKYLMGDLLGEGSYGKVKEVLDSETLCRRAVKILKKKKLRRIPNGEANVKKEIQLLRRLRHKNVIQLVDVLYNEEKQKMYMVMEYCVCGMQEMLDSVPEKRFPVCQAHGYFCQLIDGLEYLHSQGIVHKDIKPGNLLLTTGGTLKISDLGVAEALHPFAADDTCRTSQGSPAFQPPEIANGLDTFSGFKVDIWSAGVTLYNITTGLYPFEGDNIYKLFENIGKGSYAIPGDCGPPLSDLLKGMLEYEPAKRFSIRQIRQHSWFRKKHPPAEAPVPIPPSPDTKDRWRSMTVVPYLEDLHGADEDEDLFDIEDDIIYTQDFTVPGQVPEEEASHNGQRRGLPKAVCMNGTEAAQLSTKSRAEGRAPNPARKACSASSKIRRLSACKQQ
Method in brief: as §1

GAK = biological target: T3, GAK (UniProt O14976)
T3 sequence (whole entry): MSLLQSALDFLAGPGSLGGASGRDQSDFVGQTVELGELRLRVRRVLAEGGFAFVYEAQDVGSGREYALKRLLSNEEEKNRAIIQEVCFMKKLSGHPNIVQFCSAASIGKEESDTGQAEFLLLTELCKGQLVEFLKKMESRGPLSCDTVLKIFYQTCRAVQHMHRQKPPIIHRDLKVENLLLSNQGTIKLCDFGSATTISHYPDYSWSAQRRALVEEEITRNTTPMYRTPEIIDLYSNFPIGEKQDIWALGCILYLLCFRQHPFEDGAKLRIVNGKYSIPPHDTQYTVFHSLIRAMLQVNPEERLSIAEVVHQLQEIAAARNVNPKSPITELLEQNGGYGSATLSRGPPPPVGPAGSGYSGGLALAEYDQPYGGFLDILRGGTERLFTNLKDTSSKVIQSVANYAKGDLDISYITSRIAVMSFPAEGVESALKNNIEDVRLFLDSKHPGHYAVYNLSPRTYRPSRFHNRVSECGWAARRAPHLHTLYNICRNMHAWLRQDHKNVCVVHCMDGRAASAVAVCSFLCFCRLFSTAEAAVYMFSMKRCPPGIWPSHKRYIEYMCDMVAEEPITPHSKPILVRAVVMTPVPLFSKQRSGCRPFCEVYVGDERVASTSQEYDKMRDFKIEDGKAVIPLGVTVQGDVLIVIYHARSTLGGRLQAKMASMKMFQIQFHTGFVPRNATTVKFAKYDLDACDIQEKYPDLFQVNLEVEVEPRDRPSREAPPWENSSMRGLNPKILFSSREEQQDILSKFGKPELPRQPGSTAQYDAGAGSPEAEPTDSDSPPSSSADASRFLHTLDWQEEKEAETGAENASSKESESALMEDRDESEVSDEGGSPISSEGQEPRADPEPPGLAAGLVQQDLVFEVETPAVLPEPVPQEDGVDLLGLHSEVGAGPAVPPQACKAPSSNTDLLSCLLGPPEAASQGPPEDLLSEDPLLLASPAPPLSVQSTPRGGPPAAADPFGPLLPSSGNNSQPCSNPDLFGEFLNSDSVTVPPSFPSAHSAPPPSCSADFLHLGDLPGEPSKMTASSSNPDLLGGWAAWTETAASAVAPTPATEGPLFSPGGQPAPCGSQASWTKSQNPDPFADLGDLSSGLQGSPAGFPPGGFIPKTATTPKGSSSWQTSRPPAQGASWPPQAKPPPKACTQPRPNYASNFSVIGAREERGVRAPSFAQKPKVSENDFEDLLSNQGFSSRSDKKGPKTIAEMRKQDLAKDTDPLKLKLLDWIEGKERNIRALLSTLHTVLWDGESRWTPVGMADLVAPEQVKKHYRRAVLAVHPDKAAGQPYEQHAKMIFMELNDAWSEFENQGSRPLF
Method in brief: as §1

SLK = SLK (UniProt Q9H2G2)
Method in brief: as §1

ABL2 = ABL2 (UniProt P42684)
Method in brief: as §1

Sequence of CAMKK1 (Q8N5S9 whole entry, looked up): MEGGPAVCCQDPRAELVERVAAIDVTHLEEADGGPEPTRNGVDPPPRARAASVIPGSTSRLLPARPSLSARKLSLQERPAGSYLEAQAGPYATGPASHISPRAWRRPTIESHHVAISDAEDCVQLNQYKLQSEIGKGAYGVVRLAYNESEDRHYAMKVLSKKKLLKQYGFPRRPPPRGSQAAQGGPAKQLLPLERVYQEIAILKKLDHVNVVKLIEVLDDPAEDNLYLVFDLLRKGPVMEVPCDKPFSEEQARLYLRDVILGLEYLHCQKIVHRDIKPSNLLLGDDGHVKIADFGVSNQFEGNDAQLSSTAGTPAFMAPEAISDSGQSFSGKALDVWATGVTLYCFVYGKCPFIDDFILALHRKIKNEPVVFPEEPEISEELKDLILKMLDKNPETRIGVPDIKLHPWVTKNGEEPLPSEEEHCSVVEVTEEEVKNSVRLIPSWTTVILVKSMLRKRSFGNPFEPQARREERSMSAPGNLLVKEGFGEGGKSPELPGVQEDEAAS
Sequence of ABL2 (P42684 whole entry): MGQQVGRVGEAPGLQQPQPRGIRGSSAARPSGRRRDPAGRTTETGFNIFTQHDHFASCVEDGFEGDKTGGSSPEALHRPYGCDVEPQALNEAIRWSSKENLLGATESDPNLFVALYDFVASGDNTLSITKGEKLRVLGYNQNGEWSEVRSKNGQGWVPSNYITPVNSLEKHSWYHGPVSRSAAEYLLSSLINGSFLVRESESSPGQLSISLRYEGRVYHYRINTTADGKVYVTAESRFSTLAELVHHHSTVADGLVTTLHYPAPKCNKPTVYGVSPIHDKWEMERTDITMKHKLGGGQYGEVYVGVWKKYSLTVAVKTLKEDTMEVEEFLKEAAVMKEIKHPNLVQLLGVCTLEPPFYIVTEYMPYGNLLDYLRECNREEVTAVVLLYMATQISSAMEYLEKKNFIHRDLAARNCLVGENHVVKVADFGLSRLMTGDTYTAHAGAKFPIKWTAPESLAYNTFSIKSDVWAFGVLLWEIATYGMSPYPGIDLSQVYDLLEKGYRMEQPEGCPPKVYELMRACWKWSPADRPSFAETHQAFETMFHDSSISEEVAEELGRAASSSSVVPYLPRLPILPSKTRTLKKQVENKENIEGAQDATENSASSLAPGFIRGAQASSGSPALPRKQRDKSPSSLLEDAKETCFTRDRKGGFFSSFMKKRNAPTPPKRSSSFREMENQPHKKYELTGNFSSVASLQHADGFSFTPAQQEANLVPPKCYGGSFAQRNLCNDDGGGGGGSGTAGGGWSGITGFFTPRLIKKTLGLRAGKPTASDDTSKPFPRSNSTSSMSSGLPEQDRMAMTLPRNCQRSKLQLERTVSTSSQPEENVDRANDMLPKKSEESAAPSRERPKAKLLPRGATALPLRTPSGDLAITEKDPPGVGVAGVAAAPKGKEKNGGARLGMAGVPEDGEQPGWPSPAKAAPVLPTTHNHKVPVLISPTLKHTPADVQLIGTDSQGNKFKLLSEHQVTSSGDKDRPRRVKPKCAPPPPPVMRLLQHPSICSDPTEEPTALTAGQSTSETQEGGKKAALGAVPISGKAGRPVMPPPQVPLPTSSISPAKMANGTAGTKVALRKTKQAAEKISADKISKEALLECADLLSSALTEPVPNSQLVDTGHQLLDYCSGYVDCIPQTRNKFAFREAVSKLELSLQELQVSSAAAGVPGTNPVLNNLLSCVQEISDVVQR
Sequence of SLK (Q9H2G2 whole entry, looked up): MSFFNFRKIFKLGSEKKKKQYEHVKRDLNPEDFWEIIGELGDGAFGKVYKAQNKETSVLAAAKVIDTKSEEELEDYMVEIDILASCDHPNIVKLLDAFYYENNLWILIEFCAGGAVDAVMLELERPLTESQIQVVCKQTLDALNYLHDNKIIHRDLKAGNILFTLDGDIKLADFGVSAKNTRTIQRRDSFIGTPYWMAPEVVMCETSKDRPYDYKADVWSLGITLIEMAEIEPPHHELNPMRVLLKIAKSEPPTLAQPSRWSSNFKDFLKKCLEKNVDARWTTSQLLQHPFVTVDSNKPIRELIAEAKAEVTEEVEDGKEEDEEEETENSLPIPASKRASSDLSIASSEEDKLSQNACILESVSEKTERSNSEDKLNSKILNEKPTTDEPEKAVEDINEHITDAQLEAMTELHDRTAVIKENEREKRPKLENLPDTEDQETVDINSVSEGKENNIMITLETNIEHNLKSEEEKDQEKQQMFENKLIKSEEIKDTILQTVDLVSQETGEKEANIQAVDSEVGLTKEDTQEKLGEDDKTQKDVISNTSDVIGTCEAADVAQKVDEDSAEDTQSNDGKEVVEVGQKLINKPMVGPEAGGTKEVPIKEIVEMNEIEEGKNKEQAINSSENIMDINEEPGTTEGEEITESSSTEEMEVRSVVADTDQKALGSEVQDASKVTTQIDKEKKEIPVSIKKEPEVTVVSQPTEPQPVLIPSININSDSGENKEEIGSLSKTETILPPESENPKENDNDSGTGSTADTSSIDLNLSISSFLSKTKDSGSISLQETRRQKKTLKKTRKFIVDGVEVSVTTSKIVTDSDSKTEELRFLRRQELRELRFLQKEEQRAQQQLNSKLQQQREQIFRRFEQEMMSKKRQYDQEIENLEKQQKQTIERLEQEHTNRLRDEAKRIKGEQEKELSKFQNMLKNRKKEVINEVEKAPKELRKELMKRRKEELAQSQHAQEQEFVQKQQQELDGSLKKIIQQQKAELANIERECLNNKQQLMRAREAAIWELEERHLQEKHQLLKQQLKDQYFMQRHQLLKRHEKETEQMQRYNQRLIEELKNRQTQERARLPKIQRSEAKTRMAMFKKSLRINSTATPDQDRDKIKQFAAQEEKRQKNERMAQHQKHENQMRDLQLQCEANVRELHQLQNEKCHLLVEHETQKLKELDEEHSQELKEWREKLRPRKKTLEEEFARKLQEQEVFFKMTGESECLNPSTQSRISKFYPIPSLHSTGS
Sequence of LIMK1 (P53667 whole entry, looked up): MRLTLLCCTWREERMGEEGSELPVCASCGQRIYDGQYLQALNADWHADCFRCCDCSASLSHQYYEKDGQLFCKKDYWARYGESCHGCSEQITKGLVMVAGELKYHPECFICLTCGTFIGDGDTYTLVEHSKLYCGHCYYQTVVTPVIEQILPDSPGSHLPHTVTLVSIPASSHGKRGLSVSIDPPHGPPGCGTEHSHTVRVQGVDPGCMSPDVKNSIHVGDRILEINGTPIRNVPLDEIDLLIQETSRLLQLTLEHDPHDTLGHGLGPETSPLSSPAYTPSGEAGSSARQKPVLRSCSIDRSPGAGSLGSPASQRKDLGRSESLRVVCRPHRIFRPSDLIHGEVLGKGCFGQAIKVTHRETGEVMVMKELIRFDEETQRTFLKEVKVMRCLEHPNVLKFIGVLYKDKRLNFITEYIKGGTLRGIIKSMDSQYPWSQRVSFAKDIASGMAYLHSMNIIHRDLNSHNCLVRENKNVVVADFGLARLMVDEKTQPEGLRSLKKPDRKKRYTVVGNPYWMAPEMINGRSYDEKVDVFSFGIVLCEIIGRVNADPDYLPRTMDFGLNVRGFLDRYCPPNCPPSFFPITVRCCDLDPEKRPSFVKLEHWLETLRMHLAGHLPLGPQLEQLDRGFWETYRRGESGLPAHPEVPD

Row | pIC50 (TTK; cell material: Lysate mix) | pIC50 (LIMK1; cell material: Lysate mix) | pIC50 (CAMKK1; cell material: Lysate mix) | pIC50 (UniProt Q15831; cell material: Lysate mix) | pIC50 (GAK; cell material: Lysate mix) | pIC50 (SLK; cell material: Lysate mix) | pIC50 (ABL2; cell material: Lysate mix) | Compound | pIC50 (TTK; cell material: Jurkat cells) | pIC50 (TTK; cell material: Jurkat lysate) | pIC50 (LIMK1; cell material: Jurkat cells) | pIC50 (LIMK1; cell material: Jurkat lysate) | pIC50 (CAMKK1; cell material: Jurkat cells) | pIC50 (CAMKK1; cell material: Jurkat lysate) | pIC50 (UniProt Q15831; cell material: Jurkat lysate) | pIC50 (GAK; cell material: Jurkat cells) | pIC50 (GAK; cell material: Jurkat lysate) | pIC50 (SLK; cell material: Jurkat cells) | pIC50 (SLK; cell material: Jurkat lysate) | pIC50 (ABL2; cell material: Jurkat cells) | pIC50 (ABL2; cell material: Jurkat lysate)
1 | < 4.52 | 5.62 | 5.98 | 4.78 | < 4.52 | < 4.52 | 4.64 | C#CCNC(=O)c1cc(Nc2cc(C)[nH]n2)nc(N2CCN(Cc3ccc(S(=O)(=O)F)cc3)CC2)n1 |  |  |  |  |  |  |  |  |  |  |  |  | 
2 | < 4.52 |  | 6.42 | < 4.52 | < 4.52 | < 4.52 | < 4.52 | O=C(NCCNC(=O)c1cc(Nc2cc(C3CC3)[nH]n2)nc(N2CCN(Cc3ccc(S(=O)(=O)F)cc3)CC2)n1)OC1CC/C=C/CCC1 (stereo unspecified) | < 4.52 | < 4.52 | 6.66 |  | 6.77 | 6.72 | < 4.52 | < 4.52 | < 4.52 | < 4.52 | < 4.52 | 5 | < 4.52
3 | < 4.52 | 6.06 | 6.68 | 5.4 | < 4.52 | < 4.52 | 5.35 | CCNC(=O)c1cc(Nc2cc(C3CC3)[nH]n2)nc(N2CCN(Cc3ccc(S(=O)(=O)F)cc3)CC2)n1 |  |  |  |  |  |  |  |  |  |  |  |  | 
4 | < 4.52 | 5.74 | 5.97 | 4.61 | < 4.52 | < 4.52 | 4.81 | CCNC(=O)c1cc(Nc2cc(C)[nH]n2)nc(N2CCN(Cc3ccc(S(=O)(=O)F)cc3)CC2)n1 |  |  |  |  |  |  |  |  |  |  |  |  | 
5 | < 4.52 | < 4.52 | 5.96 | < 4.52 | < 4.52 | < 4.52 | < 4.52 | Cc1cc(Nc2cc(C(=O)NCCNC(=O)OC3CC/C=C/CCC3)nc(N3CCN(Cc4ccc(S(=O)(=O)F)cc4)CC3)n2)n[nH]1 (stereo unspecified) |  |  |  |  |  |  |  |  |  |  |  |  | 

Row | Compound | pIC50 (TTK; cell material: Lysate mix) | pIC50 (LIMK1; cell material: Lysate mix) | pIC50 (CAMKK1; cell material: Lysate mix) | pIC50 (UniProt Q15831; cell material: Lysate mix) | pIC50 (GAK; cell material: Lysate mix) | pIC50 (SLK; cell material: Lysate mix) | pIC50 (ABL2; cell material: Lysate mix) | pIC50 (TTK; cell material: Jurkat cells) | pIC50 (TTK; cell material: Jurkat lysate) | pIC50 (LIMK1; cell material: Jurkat cells) | pIC50 (LIMK1; cell material: Jurkat lysate) | pIC50 (CAMKK1; cell material: Jurkat cells) | pIC50 (CAMKK1; cell material: Jurkat lysate) | pIC50 (UniProt Q15831; cell material: Jurkat lysate) | pIC50 (GAK; cell material: Jurkat cells) | pIC50 (GAK; cell material: Jurkat lysate) | pIC50 (SLK; cell material: Jurkat cells) | pIC50 (SLK; cell material: Jurkat lysate) | pIC50 (ABL2; cell material: Jurkat cells) | pIC50 (ABL2; cell material: Jurkat lysate)
6 | C#CCNC(=O)c1cc(Nc2cc(C3CC3)[nH]n2)nc(N2CCN(Cc3ccc(S(=O)(=O)F)cc3)CC2)n1 | < 4.52 | 6.32 | 7.04 | 6.42 | < 4.52 | < 4.52 | 5.39 | 5.56 | < 4.52 | 6.96 | 5.99 | 6.26 | 6.86 | 5.81 | < 4.52 | < 4.52 | 5.46 | < 4.52 | 5.87 | 4.65
